Results: ChEMBL document CHEMBL1201862, “PubChem BioAssay data set” (2004)
The source made the active and inactive calls.

Tests used:
[1] = cells; type: functional, cell-based
[2] = target: T1, Nuclear receptor subfamily 0 group B member 1 (Homo sapiens, UniProt P51843); type: functional, cell-based;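 also: HEK293T cells transfected with SF-1 and DAX-1 plus StAR promoter luciferase reporter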
T1 sequence (P51843 whole entry): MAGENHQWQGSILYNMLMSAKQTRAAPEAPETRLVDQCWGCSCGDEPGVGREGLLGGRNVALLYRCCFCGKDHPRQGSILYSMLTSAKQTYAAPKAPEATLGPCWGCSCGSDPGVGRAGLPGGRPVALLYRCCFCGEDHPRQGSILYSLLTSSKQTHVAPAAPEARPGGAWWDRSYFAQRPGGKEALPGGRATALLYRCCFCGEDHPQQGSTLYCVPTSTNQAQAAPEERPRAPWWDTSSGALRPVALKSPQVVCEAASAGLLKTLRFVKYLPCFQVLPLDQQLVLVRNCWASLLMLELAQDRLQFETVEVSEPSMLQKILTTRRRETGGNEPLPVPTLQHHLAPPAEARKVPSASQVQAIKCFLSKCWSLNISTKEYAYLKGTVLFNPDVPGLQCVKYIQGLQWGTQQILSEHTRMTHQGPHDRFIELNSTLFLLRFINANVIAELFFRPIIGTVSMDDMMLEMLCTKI

[3] = cells; type: functional, cell-based; remark: listed apart in the source
[4] = target: T2, Trace amine-associated receptor 1 (Homo sapiens, UniProt Q96RJ0); assay: Fluorescence-based cell-based high throughput dose response assay to identify agonists of the human trace amine associated receptor 1 (TAAR1).; type: functional
T2 sequence (Q96RJ0 whole entry): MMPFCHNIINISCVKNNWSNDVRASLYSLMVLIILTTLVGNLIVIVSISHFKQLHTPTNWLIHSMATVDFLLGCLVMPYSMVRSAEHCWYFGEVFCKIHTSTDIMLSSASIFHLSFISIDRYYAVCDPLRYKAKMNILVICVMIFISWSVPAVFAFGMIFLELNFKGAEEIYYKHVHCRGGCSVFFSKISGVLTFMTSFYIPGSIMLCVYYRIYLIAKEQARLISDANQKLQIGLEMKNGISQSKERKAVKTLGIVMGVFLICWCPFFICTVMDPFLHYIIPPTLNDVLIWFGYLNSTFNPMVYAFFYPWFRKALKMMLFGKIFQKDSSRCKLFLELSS

[5] = target: T2, Trace amine-associated receptor 1; assay: Counterscreen for agonists of the human trace amine associated receptor 1 (hTAAR1): Fluorescence-based cell-based high throughput dose response assay to identify hTAAR1 agonist that also desensitize TAAR1 receptor response.; type: functional
[6] = cells; type: functional, cell-based; remark: listed apart in the source
[7] = T. cruzi intracellular amastigote growth inhibition, dose response, imaging, CA-I/72 strain, bovine embryo skeletal muscle, dry powder (AID 651885); type: functional, cell-based
[8] = target: FAD-linked sulfhydryl oxidase ALR (Homo sapiens, UniProt P55789); assay: inhibitors of human ALR sulfhydryl oxidase, dose response, biochemical, H2O2 detection, luminescence, cherry-pick (AID 493248)
FAD-linked sulfhydryl oxidase ALR, sequence (P55789 whole entry): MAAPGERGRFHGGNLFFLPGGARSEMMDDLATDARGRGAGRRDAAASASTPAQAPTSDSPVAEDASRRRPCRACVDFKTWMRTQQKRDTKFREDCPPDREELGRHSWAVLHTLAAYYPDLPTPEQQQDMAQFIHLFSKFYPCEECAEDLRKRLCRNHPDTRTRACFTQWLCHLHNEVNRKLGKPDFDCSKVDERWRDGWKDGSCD

[9] = NIH/3T3 fibroblast cytotoxicity, dose response, cytotoxicity control for T. cruzi growth inhibitor project, cell-based, cherry-pick samples, set 2 (AID 651817); type: functional; conditions: NIH3T3
[10] = target: T3, Replicative DNA helicase DnaB (Mycobacterium tuberculosis, UniProt P9WMR3); assay: DnaB intein splicing inhibitors, dose response, biochemical, cell-free fluorescence (AID 449749); type: functional
T3 sequence (P9WMR3 whole entry): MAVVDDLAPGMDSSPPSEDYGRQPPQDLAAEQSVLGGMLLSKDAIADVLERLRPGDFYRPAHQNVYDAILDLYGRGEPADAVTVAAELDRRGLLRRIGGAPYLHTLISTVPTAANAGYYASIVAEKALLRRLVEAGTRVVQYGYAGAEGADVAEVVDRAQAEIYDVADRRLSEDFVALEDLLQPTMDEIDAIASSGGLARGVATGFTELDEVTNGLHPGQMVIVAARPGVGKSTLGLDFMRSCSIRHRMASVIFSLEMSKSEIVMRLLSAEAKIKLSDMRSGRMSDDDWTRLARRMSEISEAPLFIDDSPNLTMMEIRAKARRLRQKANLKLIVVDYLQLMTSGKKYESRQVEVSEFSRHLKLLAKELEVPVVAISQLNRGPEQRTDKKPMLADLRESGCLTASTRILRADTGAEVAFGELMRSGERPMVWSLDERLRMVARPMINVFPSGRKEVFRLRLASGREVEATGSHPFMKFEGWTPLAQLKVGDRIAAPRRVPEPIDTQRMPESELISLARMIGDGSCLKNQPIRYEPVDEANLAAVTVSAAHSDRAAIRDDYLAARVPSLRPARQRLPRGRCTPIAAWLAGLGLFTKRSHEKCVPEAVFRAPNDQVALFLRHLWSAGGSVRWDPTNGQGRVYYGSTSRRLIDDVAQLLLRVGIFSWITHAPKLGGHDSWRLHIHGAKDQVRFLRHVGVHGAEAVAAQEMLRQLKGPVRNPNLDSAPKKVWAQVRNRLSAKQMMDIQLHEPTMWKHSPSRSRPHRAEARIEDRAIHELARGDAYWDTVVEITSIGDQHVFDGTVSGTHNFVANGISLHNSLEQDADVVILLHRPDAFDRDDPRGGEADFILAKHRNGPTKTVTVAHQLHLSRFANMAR

[11] = target: T4, Protein RecA (Mycobacterium tuberculosis, UniProt P9WHJ3); assay: Fluorescence Cell-Free Homogeneous Dose Retest to Identify Inhibitors of RecA-Intein Splicing Activity. [Related pubchem assays (depositor defined):AID2097, AID2223, AID489010, AID492950]; type: functional
T4 sequence (P9WHJ3 whole entry): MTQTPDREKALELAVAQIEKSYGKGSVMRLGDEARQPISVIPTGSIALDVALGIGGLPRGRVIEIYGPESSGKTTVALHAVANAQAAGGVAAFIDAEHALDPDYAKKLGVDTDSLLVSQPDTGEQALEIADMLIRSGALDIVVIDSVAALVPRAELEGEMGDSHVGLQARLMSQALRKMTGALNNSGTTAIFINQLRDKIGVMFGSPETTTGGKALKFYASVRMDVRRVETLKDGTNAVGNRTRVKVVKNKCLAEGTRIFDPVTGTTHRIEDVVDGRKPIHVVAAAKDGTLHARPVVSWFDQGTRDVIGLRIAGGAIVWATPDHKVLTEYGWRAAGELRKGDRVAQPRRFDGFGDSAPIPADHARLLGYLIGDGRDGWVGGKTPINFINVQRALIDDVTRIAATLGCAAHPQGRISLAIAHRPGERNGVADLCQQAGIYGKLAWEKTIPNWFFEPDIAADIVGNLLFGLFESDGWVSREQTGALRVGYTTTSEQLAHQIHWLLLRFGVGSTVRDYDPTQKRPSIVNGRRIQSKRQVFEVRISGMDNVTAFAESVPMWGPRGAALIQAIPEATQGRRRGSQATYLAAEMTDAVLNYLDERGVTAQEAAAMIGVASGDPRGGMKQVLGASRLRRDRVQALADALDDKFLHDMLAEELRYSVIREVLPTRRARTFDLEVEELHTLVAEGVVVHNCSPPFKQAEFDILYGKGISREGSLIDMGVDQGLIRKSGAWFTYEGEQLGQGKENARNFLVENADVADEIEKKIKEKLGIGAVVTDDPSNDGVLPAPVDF

[12] = target: Dual specificity tyrosine-phosphorylation-regulated kinase 1A (Rattus norvegicus, UniProt Q63470); type: biochemical, Homo sapiens
[13] = HeLa cell cytotoxicity, dose response, cytotoxicity control for MgcRacGAP inhibitor project (AID 624300); type: functional
[14] = target: T5, Rac GTPase-activating protein 1 (Homo sapiens, UniProt Q9H0H5); assay: MgcRacGAP GTPase-activating activity inhibitors, confirmation, biochemical, ADP Hunter fluorescence, primary and confirmatory (AID 624330); type: functional
T5 sequence (Q9H0H5 whole entry): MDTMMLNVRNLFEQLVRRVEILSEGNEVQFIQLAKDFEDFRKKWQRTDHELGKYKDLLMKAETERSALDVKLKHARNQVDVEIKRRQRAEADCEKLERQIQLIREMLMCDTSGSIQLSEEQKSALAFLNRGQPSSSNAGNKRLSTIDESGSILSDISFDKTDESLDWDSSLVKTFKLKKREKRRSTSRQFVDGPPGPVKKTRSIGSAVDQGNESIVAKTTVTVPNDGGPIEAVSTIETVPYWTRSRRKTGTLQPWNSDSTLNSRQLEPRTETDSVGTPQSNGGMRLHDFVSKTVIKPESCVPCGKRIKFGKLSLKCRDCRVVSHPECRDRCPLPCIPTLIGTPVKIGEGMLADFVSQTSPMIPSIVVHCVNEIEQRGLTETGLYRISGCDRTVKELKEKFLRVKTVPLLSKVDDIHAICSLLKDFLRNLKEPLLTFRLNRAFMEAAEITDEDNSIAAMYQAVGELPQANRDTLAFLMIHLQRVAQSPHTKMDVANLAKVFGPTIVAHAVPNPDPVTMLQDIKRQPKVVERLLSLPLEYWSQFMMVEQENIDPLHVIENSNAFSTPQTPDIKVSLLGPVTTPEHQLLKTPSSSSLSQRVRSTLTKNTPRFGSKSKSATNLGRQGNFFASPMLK

[15] = target: Cytochrome P450 2C19 (Homo sapiens, UniProt P33261); assay: Cytochrome panel assay with activity outcomes. Panel member name: p450-cyp2c19 Compounds with AC50 equal or less than 10 uM are considered active; type: functional; conditions: read-out: AC50
Cytochrome P450 2C19, sequence (P33261 whole entry): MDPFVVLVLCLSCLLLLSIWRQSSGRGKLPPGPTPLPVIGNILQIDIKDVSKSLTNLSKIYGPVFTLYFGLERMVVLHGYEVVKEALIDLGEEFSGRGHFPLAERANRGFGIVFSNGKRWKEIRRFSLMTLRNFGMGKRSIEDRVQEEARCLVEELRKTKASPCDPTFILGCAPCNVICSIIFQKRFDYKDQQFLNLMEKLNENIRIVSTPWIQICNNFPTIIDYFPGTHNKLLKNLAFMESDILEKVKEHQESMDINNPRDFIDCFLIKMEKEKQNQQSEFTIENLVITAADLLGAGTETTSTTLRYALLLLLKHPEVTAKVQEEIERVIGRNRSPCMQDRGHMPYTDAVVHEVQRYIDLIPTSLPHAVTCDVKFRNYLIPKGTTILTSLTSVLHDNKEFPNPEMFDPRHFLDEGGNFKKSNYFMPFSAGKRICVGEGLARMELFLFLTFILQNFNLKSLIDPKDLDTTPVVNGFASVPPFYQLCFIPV

[16] = target: Fructose-bisphosphate aldolase (Mycobacterium tuberculosis, UniProt P9WQA3); assay: Fluorescence-based biochemical high throughput dose response assay for inhibitors of the fructose-bisphosphate aldolase (FBA) of M. tuberculosis.; type: functional
Fructose-bisphosphate aldolase, sequence (P9WQA3 whole entry): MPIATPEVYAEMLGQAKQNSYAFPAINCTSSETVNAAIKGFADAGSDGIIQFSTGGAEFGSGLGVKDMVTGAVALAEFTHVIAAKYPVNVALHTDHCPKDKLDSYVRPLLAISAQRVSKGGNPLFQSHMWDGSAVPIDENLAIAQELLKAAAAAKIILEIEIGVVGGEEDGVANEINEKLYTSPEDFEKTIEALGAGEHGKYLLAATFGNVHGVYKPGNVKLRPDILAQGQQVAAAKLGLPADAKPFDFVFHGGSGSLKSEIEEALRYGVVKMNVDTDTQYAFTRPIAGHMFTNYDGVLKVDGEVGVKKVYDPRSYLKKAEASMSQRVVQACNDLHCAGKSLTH

[17] = target: Cytochrome P450 2C9 (Homo sapiens, UniProt P11712)
Cytochrome P450 2C9, sequence (P11712 whole entry): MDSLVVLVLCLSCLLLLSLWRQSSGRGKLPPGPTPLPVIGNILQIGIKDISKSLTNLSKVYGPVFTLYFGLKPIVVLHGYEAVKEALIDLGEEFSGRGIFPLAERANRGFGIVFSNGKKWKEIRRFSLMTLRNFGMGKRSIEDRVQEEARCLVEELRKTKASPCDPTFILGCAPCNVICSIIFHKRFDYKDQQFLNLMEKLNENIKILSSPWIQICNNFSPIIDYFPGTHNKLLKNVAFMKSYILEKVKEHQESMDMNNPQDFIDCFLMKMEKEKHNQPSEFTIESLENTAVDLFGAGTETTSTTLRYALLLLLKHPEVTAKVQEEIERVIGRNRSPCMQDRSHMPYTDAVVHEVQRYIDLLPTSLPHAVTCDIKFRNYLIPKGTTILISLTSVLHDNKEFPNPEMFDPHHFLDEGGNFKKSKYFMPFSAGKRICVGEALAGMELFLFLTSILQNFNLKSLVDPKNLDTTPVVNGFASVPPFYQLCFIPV

[18] = HEK293T cytotoxicity, dose response, cytotoxicity control for miR-122 modulator project, cell-based, activator set, cherry-pick (AID 720690); type: functional;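 also: HEK293T human cells scored for general mammalian cytotoxicity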
[19] = target: Paired box protein Pax-8 (Homo sapiens, UniProt Q06710); assay: inhibitors of PAX8-driven TPO luciferase reporter, dose response, RMG-I cells, cherry-pick (AID 687027); type: functional, cell-based;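 also: luciferase reporter driven by Pax8 target thyroperoxidase promoter measured by SteadyGlo luminescence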
Paired box protein Pax-8, sequence (Q06710 whole entry): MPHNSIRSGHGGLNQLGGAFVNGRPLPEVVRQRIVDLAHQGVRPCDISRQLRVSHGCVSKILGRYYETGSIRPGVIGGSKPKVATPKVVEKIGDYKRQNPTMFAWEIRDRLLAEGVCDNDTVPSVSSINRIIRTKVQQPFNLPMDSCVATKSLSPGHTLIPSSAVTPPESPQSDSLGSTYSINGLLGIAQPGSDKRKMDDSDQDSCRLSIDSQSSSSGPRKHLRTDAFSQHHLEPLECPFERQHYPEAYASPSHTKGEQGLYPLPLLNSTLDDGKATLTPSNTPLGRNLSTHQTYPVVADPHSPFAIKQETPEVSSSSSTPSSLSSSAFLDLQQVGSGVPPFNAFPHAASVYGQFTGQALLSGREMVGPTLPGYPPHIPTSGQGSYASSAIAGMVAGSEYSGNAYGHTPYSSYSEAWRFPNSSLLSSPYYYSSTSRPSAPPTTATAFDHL

[20] = A2780 ovarian cancer cell cytotoxicity, dose response, cytotoxicity control, plate reader, dry powder samples (AID 743046); type: functional, cell-based
[21] = NIH:OVCAR-3 ovarian cancer cell cytotoxicity, dose response, PAX8 inhibitor project, plate reader, dry powder samples (AID 743044); type: functional, cell-based
[22] = IGROV1 ovarian cancer cell cytotoxicity, dose response, PAX8 inhibitor project, plate reader, dry powder samples (AID 743043); type: functional, cell-based; conditions: IGROV-1
[23] = cytotoxicity in OVCAR8 ovarian cancer cells, dose response, PAX8 project, cell-based, plate reader, dry powder samples (AID 743197); type: functional; conditions: OVCAR-8
[24] = non-specific cell cytotoxicity, dose response, cytotoxicity control for PAX8 inhibitor project, plate reader, dry powder samples (AID 743021); type: functional, cell-based

Cc1ccc2c(Cl)c(C(=O)NC3CC3)sc2c1
IC50 [1]: > 67.5 µM (inactive) | IC50 [2]: > 7.49 µM (active)

O=C(N[C@@H](Cc1cccnc1)C(=O)N1CCC[C@H]1C(=O)NCCc1ccccc1Cl)c1ccc(Cl)c(Cl)c1
IC50 [3]: > 29.9 µM (inactive) | EC50 [4]: 2.9 µM (active) | IC50 [5]: 2.6 µM (active) | EC50 [6]: > 29.9 µM (inactive)

C[C@@H]1CN([C@@H](C)CO)C(=O)c2cccc(NC(=O)c3ccncc3)c2O[C@H]1CN(C)Cc1ccncc1
IC50 [7]: 17.3 µM (inconclusive)

COc1c(O)cc2oc(-c3ccc(O)cc3)cc(=O)c2c1O [HISPIDULIN]
AC50 [8]: 572 nM (active) | IC50 [1]: > 67.5 µM (inactive) | IC50 [2]: > 0.834 µM (active)

Cc1ccc(S(=O)(=O)Nc2ccc3c(c2)CC(=O)N([C@@H](C)CO)C[C@@H](C)[C@H](CN(C)Cc2ccccc2)O3)cc1
AC50 [9]: 39 µM (inactive)

Oc1ccc(NC(=S)N=Nc2c(O)[nH]c3ccc(Br)cc23)cc1
AC50 [10]: 12.1 µM (active) | EC50 [11]: 13.7 µM (active) | AC50 [12]: 1.2 µM (active) | CC50 [13]: 61.5 µM (active) | IC50 [14]: 152 µM (active)

C[C@H]1CN([C@@H](C)CO)C(=O)Cc2cc(NS(=O)(=O)c3ccc(F)cc3)ccc2O[C@H]1CN(C)Cc1ccc(Cl)c(Cl)c1
AC50 [9]: 39 µM (inactive)

CCOC(=O)c1[nH]c2cc3c(cc2c1NC(=O)CN1CCc2ccccc2C1)OCO3
AC50 [15]: 2.24 µM (inconclusive) | IC50 [16]: 485 nM (active) | AC50 [17]: 7.94 µM (inconclusive)

CN1C(=O)c2cc(NC(=O)c3ccc(C(F)(F)F)cc3)ccc2OC[C@@H]2O[C@@H](CC(=O)NCc3ccc4c(c3)OCO4)CC[C@H]21
AC50 [18]: 20.3 µM (active)

C[C@@H]1CN([C@@H](C)CO)S(=O)(=O)c2ccc(C#Cc3ccccc3F)cc2O[C@H]1CN(C)C(=O)c1ccc2c(c1)OCO2
AC50 [19]: 4.88 µM (active) | AC50 [20]: 765 nM (active) | AC50 [21]: 6.2 µM (active) | AC50 [22]: 28.5 µM (active) | AC50 [18]: 5.74 µM (active) | AC50 [23]: 17.7 µM (active)

CC(C)N1C[C@H](C)[C@@H](CN(C)Cc2ccccc2Cl)Oc2c(NC(=O)c3ccncc3)cccc2C1=O
IC50 [7]: 0.0201 µM (active)

C[C@H](CO)N1C[C@H](C)[C@H](CN(C)Cc2ccc3c(c2)OCO3)OCCCC[C@H](C)Oc2ccc(NC(=O)Nc3ccc(C(F)(F)F)cc3)cc2C1=O
AC50 [19]: 9.15 µM (active) | AC50 [24]: 46.4 µM (active)

Cc1cc(C(=O)COC(=O)C2=NNC(=O)CC2)c(C)n1CCc1ccccc1
IC50 [3]: > 29.9 µM (inactive) | EC50 [4]: 1.58 µM (active) | IC50 [5]: 7.2 µM (active) | EC50 [6]: > 29.9 µM (inactive)

CS(=O)(=O)NN1C(=O)c2ccccc2NC1c1ccccc1 (stereo not given)
IC50 [16]: > 1110 nM (active)
